Patent US6642365B1, “Anti-(retro)viral conjugates of saccharides and acetamidino or guanidino compounds” (Yeda Research and Development Co. Ltd., priority 2001, dated 2003)
Entries after “also recorded” stand apart in the source; their conditions may differ. Where two headings read alike, the source gives them in different places.

Legend:
Tat-TAR interaction [1] = test: Gel-shift inhibition of Tat R52 peptide binding to TAR RNA; parameters: species or system HIV-1; conditions: TAR RNA 6 nM; 60 nM Tat R52; read-out: CI50 (the source's name)
Experimental: The model Tat peptide (R52: […]) was prepared by the Weizmann Institute Chemical Services and was purified by reverse phase HPLC (C-18) (Lapidot et al., 1995). A 31-nt TAR RNA fragment (5′-GGCCAGAUCUGAGCCUGGGAGCUCUCUGGCC-3′) containing the sequence 18-44 of the HIV LTR (Aboul-Ela et al., 1995) was transcribed in vitro by T7 RNA polymerase (Promega) from a synthetic single strand DNA template containing the 17 base double-stranded T7 promoter (both DNA oligonucleotides were prepared by the Weizmann Institute Chemical Services). The RNA was transcriptionally labeled with α-^32P UTP, purified on a 12% polyacrylamide/7M urea gel (19:1 acrylamide:bis-acrylamide) and was eluted from the gel by 0.5M ammonium acetate, 10 mM magnesium acetate, 1 mM EDTA and 0.1% SDS. The sample was subjected to phenol extraction and the RNA was precipitated from 70% ethanol. Purified RNA was dissolved in diethyl pyrocarbonate-treated water (DEPC water), its concentration was determined by UV absorption at 260 nm and the specific radioactivity was determined by scintillation counting on a LS 1701 “Bruker” counter.
To study the affinity of the test compounds to TAR, gel-shift and gel-shift inhibition experiments were performed. The binding reaction mixtures (20 μl) contained ^32P-labeled TAR (18-44) RNA oligonucleotide (3-6 nM) and Tat R52 peptide (35-75 nM) in a binding buffer (10 mM Tris-HCl pH 7.5, 70 mM NaCl, 0.2 mM EDTA and 5% glycerol). The reaction mixtures were incubated for 10 minutes on ice and resolved by electrophoresis on a 10% non-denaturing polyacrylamide gel (40:1 acrylamide:bis-acrylamide) at 200V, for 3 h at 4° C. Gels were dried and visualized by autoradiography. Quantitations were obtained by optical densitometry of films. Alternatively, results were visualized by exposing the wet gels to Fuji phosphoimager plates, which were read on a “Storm 820” (Molecular Dynamics) phosphoimager. Different concentrations of TAR RNA (6,12 and 20 nM) were titrated with various concentrations of Tat R52 in the binding reactions.
Binding inhibition by the monosaccharide derivatives was measured by adding several concentrations of each compound to reaction mixtures containing 60 nM Tat 52 and 6 nM ^32P TAR, attaining 100% binding of Tat TAR in the absence of inhibitors (Lapidot et al., 1995).

Tat-TAR interaction [2] = test: as above; parameters: species or system HIV-1; conditions: TAR RNA 2 nM; read-out: CI50 (the source's name)
TAR RNA = test: L-arginine-Amberlite affinity column elution of TAR RNA; assay type: binding, HIV-1; conditions: concentration that elutes 50% of TAR RNA from L-arginine-Amberlite affinity column
Experimental: The model Tat peptide (R52: […]) was prepared by the Weizmann Institute Chemical Services and was purified by reverse phase HPLC (C-18) (Lapidot et al., 1995). […] The RNA was transcriptionally labeled with α-^32P UTP, purified on a 12% polyacrylamide/7M urea gel (19:1 acrylamide:bis-acrylamide) and was eluted from the gel by 0.5M ammonium acetate, 10 mM magnesium acetate, 1 mM EDTA and 0.1% SDS. The sample was subjected to phenol extraction and the RNA was precipitated from 70% ethanol. Purified RNA was dissolved in diethyl pyrocarbonate-treated water (DEPC water), its concentration was determined by UV absorption at 260 nm and the specific radioactivity was determined by scintillation counting on a LS 1701 “Bruker” counter.
The L-arginine-Amberlite resin was prepared as follows: Carboxyl groups of Amberlite IRC-50 resin were covalently modified with ethanolamine using 1-(3-dimethylaminopropyl) 3-ethylcarbodiimide, a water-soluble coupler. The hydroxy ethyleneamide resin obtained was washed and dried, and L-arginine (12-16 μmols per ml of resin) was coupled to the hydroxy groups of the resin via an isourea moiety using a standard cyanogen bromide protocol. The final concentration of arginine residues was 12-16 μmol per ml of resin. The swollen L-arginino-Amberlite resin (200 μl) was packed into a plastic mini-column and equilibrated with buffer containing 40 mM Tris HCl, pH 7.5, 250 mM NaCl, 0.5 mM EDTA and 5 mM MgCl2 (buffer A). Approximately 1 ng of ^32P-UTP labeled TAR RNA in buffer A was loaded on the column. The column was eluted 3 to 5 times with 400 μl portions of buffer A, until no radioactivity was detected in the eluent. […] Each of the test compounds was dissolved in buffer A and passed through the column in 300 μl portions. Radioactivity of the eluates was determined by scintillation counting on a LS 1701 “Bruker” counter. CE50 values, the concentrations of inhibitors eluting 50% of the radioactive material from the column, were determined.

Tat-TAR complex = conditions: cited from earlier work
CXCR4 [3] = biological target: T1, CXCR4 (Homo sapiens, UniProt P61073); test: Inhibition of anti-CXCR4 mAb (12G5) binding, flow cytometry, PHA-activated PBMC; parameters: endogenous in cells
Experimental: (§1) Measurement of chemokine receptors CXCR4, CCR5 and the CD4 receptor on phytohemagglutinin (PHA)-activated PBMC was performed by flow cytometry analysis. Briefly, 0.5×10^6 cells were washed in ice-cold phosphate-buffered saline (PBS) and incubated for 30 minutes at 4÷C. with fluorescent labelled mAb 12G5 and 2D7 and Leu3a (Becton Dickinson, San Jose, Calif.) or with isotype control mAbs in the presence or absence of the test compound. Then, the cells were washed with ice-cold PBS and were fixed in PBS containing 1% formaldehyde. For each sample, 10,000 events were analysed in a FACScalibur™ system (Becton Dickinson). Data were acquired and analysed with CellQuest™ software (Becton Dickinson).

[4] = test system: MT-2 cells as well as PMBC lines ETH and IS; conditions: ratio CC50/EC50
Experimental: (§2) The cells were infected by incubation with different titers of the HIV-1 strains for 2 hrs at 37° C. in the presence or absence of the AAC of the invention. Then the cells were washed from the virus by centrifugation at 400 g and the supernatants were discarded. The cells were resuspended in culture medium, supplemented with different concentrations of the test compounds. The cells were allowed to proliferate for 5 days, the number of viable cells was quantified by a tetrazolium-based colorimetric method (CellTiter 96® AQueous One solution Cell Proliferation Assay, Promega). Anti-HIV activity in P4-CCR5 MAGI cells was done as follows: cells (1×10^5/ml) were infected with 10 ng/ml of p24 antigen of HIV-1 Ba-L in the presence of varying concentrations of the test compound. 24 hours post infection, cells were washed twice with PBS and resuspended in the medium containing the appropriate drug concentration. Five days after infection the cells were washed with PBS and evaluated for β-galactosidase activity.

HIV-1 2D = assay type: cell-based
Experimental: (§3) T-tropic HIV-1 laboratory strains IIIb, 2D as well as AZT-resistant and UC781-resistant strains were utilized in this study, along with clinical isolate (clade C). HIV-1 clinical isolate, resistant to AZT is a generous gift from Dr. Mark A. Wainberg, McGill AIDS Center, McGill University, Montreal, Canada.
(§4) MT-2 or MT-4 cells were cultured in RPMI 1640 supplemented with 10% fetal calf serum (FCS), 0.2 mM glutamine and penicilline/streptomycin/nistatin mixture. The cells were propagated in 96-well tissue culture plates at the density of 5×10^4 cells per well. Peripheral mononuclear blood cells (PMBC) were separated from whole blood samples by centrifugation in Ficoll gradient for 10 min at 400 g. PMBC were cultured in the same medium in 24-well tissue culture plates at the density of about 10^6 cells per well.

CXCR4 [5] = biological target: T1, CXCR4; test: Inhibition of anti-CXCR4 mAb (12G5) binding, flow cytometry, SUP-T1 cells; parameters: endogenous in cells
Experimental: as §1

HIV-1 IIIB = test: Anti-HIV assay, syncytium formation and tetrazolium colorimetric assay; assay type: cell-based; conditions: range over IIIb, 2D, AZT resistant, UC781 resistant and clade C HIV-1
Experimental: as §3, §4

[6] = test system: HIV-1 clinical isolate (clade C); test: as above; assay type: cell-based
Experimental: as §3, §4

HIV-1 NL4-3 [7] = test: Anti-HIV assay, MTT, MT-4 cells; assay type: cell-based
Experimental: The HIV-1 strains NL4-3 and Ba-L and the CD4^+lymphocytic cell lines SUP-T1, MT-4 and MT-2 and P4-CCR5 MAGI cells were obtained from the MRC AIDS reagent program or the NIH, AIDS Research and Reference Reagent Program.
as §2

HIV-1 NL4-3 [8] = test: Virus-binding assay, p24 antigen bound to MT-4 cells; assay type: cell-based; conditions: 0.5 μg/ml
Experimental: MT4 cells (5×10^5) were incubated with supernatant containing 1×10^5 pg of p24 antigen of wild type HIV-1 in the presence of different concentrations of the test compound. One hour after infection, cells were washed 3 times with PBS and p24 antigen bound to the cells was determined by a commercial ELISA test (Coulter, Spain).

[9] = test system: HIV-1 NL4-3 AMD3100-resistant; assay type: cell-based
HIV Rev-RRE interaction = conditions: at 100 μM; cited from earlier work

T1 sequence (P61073 whole entry): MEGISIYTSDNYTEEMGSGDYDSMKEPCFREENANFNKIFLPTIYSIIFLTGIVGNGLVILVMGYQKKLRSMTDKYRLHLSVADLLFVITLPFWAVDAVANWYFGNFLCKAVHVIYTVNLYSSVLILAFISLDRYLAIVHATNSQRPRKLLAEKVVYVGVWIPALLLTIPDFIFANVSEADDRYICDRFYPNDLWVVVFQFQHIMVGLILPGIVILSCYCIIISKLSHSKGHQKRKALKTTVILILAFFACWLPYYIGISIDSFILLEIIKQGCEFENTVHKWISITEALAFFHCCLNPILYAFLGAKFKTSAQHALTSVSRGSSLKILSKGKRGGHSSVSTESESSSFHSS

Compound: Cl.N=C(N)NCCC[C@H](N)C(=O)O [Arginine HCl, reference compound]
- IC50 (Tat-TAR interaction [1]): 38 mM
- IC50 (Tat-TAR interaction [2]): 4 mM
- CE50 (TAR RNA): 1500 mM

Compound: NC[C@@H]1O[C@H](O[C@H]2[C@@H](O)[C@H](O[C@@H]3[C@@H](O)[C@H](N)C[C@H](N)[C@H]3O[C@H]3O[C@H](CN)[C@@H](O)[C@H](O)[C@H]3N)O[C@@H]2CO)[C@H](N)[C@@H](O)[C@@H]1O [Neomycin B, reference compound]
- concentration range of inhibitory effect on Tat binding to TAR (Tat-TAR complex; in vitro): 1 to 100 µM

Compound: CO[C@@H]1O[C@H](CC(N)=O)C(O)[C@H](O)[C@@H]1O (stereo partly drawn) [compound 8, Methyl 6-deoxy-α-D-mannoheptopyranuronic acid amide]
- melting point: 177 °C

Compound: Hexa/penta-argininamido-neomycin B conjugate [NeoR]
- binding of 12G5 mAb to PHA-activated PBMC (CXCR4 [3]; 5 μM): suppressed significantly more than in the presence of 5 μM R3G; also recorded: suppressed
- IC50 (CXCR4 [3]; read-out: IC50-12G5 PMBC): 2400 nM
- TI50 [4]: 60-85
- EC50 (HIV-1 2D): 4 µM
- antiviral effect in the presence of AZT (HIV-1 2D): additive
- affinity for CXCR4 (CXCR4 [5]; inhibition of 12G5 binding to SUP-T1 cells or PMBC): high affinity
- EC50 (HIV-1 IIIB): 3 to 4 µM
- inhibition of virus growth ([6]; MT-2 cells infected in presence of 20 μM R3G or 10 μM NeoR, then 3 days without AAC): 60%
- EC50 ([6]; average of two independent experiments in duplicates): 3000 nM

Compound: SDF-1α
- EC50 (HIV-1 NL4-3 [7]): 40 nM
- binding of HIV-1 to MT-4 cells (HIV-1 NL4-3 [8]): did not inhibit the binding
- IC50 (CXCR4 [5]): 13 nM
- EC50 ([9]; MTT assay, read-out: EC50 HIV-1 AMD 3100res): > 1000 nM
- cross-resistance of NL4-3 AMD3100-resistant virus ([9]; relative to NL4-3): > 25 fold

Compound: gentamicin
- inhibition of Rev-RRE interaction (HIV Rev-RRE interaction): do not display any inhibition

Compound: native Tat: HIV trans-activator of transcription protein
- Kd (Tat-TAR complex; comparison value, read-out: Kd of the native Tat-TAR complex): 6 to 12 nM
